The values that follow come from patent US6515025B2, “Use of ethynyl alanine amino diol compounds to inhibit enzymatic conversion of angiotensinogen to angiotensin I” (Pharmacia Corporation, priority 1991, dated 2003).

Where “and” joins values, the source holds several entries; their conditions need not be identical. Equal values may be shown once. Read-outs that look alike come from different tables or passages of the source.

Test [1] deals with Plasma Renin Activity (PRA). The test can be described thus: Marmoset plasma renin activity (PRA) reduction on oral administration. In kind it is in vivo, Marmoset monkeys (Callithrix jacchus). As to conditions: 0.1 MPK, IG; for inhibition at 0.1 mg/kg: Primates, po. Here is the method: The oral activity of renin inhibitor compounds was determined in vivo in Marmoset monkeys using the following procedure. Common Marmoset monkeys (Callithrix jacchus, Charles River, both sexes, body weight 300-400 g) were placed on a modified high-protein low-sodium diet (Purina, St. Louis, Mo.) for 1 week. About 24 hours prior to the administration of test compound, Lasix (5 mg/kg, im) was given. On the day of the test, the animal was anesthetized with isoflurane, body weight recorded, and a baseline blood sample taken. Then, test compound was given intragastrically and blood samples were taken in K-EDTA for plasma renin activity at appropriate time intervals. The PRA was determined by using the protocol outlined below. Results are expressed in terms of PRA at various time intervals both before and after compound administrations (“Pre” means pretreatment levels before compound administrations). Also included is percent inhibition (% INH from pretreatment levels).
I. Angiotensin I Generation
25 ml of the above reaction mixtures, in duplicate, were incubated at 37° C. or 0° C. for 2 hours.
II. Determination of Angiotensin I Concentrations
Angiotensin I (AI) concentrations were determined by radioimmunoassays with a commercial kit from NEN Co.
III. Calculation of Plasma Renin Activity
PRA (ng AI/ml/hr)=(AI at 37°−AI at 0°)/2 hr.

For test [2], the target named is T1, renin (Marmoset Monkey plasma) (Callithrix jacchus, UniProt Q9TSZ1).
T1 construct: the animal plasma is the source of both the renin substrate and the renin enzyme; from tissue; host or cells: pooled marmoset plasma
T1 sequence (Q9TSZ1 61-400): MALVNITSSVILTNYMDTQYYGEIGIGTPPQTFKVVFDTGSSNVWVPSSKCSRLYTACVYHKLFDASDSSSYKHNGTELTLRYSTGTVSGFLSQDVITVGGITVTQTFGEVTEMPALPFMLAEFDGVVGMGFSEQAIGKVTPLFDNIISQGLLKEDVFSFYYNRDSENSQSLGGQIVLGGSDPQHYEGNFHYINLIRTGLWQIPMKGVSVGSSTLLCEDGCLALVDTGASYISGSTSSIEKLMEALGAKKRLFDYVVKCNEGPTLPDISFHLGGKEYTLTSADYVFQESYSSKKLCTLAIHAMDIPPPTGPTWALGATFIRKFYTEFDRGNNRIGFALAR
The test can be described thus: Renin inhibitor species specificity, marmoset plasma renin activity. In kind it is biochemical. Here is the method:
Blood was collected in a 10 ml Becton Dickinson vacutainer tube with 0.1 ml of 15% EDTA (K3) solution (15 mg) from normal animals or high renin animals; i.e., those pre-treated with 5 mg/kg of Lasix® intramuscularly 2 times within a 6 hour interval 24 hours prior to bleeding. The blood was then centrifuged at 2500 RPM for 20 minutes and the plasma from the various species respectively pooled, aliquoted and stored in the freezer. The human plasma source was taking a prescription of an angiotensin converting enzyme inhibitor.
The plasma renin activity assay is a modification of the human renin inhibition test in that the animal plasma is the source of both the renin substrate and the renin enzyme. In a total volume of 0.1 ml, 90 mM Tris-acetate buffer, pH 7.5, 12 mM sodium EDTA, 0.012 mg/ml neomycin sulfate, 0.9 mg/ml bovine serum albumin, 1.61 mM phenylmethyl sulfonyl fluoride, 4 mM 8-hydroxyquinoline and 0.09 ml of the animal or human plasmas were incubated for 2 hours at 37° C. in a shaking water bath or at 4° C. in an ice bath in the presence or absence of renin inhibitors. The produced angiotensin I was determined by radioimmunoassay (New England Nuclear kit).
The amount of angiotensin I generated during the 2 hours at 4° C. was usually less than 5% of that activity produced at 37° C.; however, the 4° C. background values were nevertheless subtracted from the 37° C. ones for the 100% activity values. The renin inhibitors were assayed in duplicate using 5 concentrations and the data is expressed as a percent of the 100% total renin activity.

In the case of `C#CC[C@H](NC(=O)C(CC(=O)N(C)CCN(C)C)Cc1ccccc1)C(=O)NC(CC1CCCCC1)[C@@H](O)C(O)CC(C)C` (relative stereo) [Example 1, N1-[1R*-[[[1S,1R*-(cyclohexylmethyl)-2S*,3R*-dihydroxy-5-methylhexyl]amino]carbonyl]-3-butynyl]-N4-[2-(dimethylamino)ethyl]-N4-methyl-2S*-(phenylmethyl)butanediamide], the “% INH (from pretreatment PRA)” value is 76.6% and 95.6% in test [1] (60 min, individual monkeys); 91.1% and 71.5% and 94.2% in test [1] (120 min, individual monkeys); 89.8% and 67.8% and 45% in test [1] (240 min, individual monkeys). Further, the PRA was 2.8 ngAI/ml/hr and 16.4 ngAI/ml/hr and 4 ngAI/ml/hr in test [1] (60 min from dosing, individual monkeys); 4.1 ngAI/ml/hr and 20 ngAI/ml/hr and 5.2 ngAI/ml/hr in test [1] (120 min from dosing, individual monkeys); 9.2 ngAI/ml/hr and 14.8 ngAI/ml/hr and 38.7 ngAI/ml/hr in test [1] (240 min from dosing, individual monkeys); 45.8 ngAI/ml/hr and 70.2 ngAI/ml/hr and 90.1 ngAI/ml/hr in test [1] (Pre (pretreatment level), individual monkeys). The inhibition at 0.1 mg/kg came to 93.8% in test [1] (60 min, individual monkeys, read-out: % INH (from pretreatment PRA)); 88.7 ± 6% in test [1] (1 h, 60 min, mean of monkeys A-C, read-out: MEAN % INH); 85.6 ± 7% in test [1] (2 h, 120 min, mean of monkeys A-C, read-out: MEAN % INH); 67.5 ± 13% in test [1] (4 h, 240 min, mean of monkeys A-C, read-out: MEAN % INH). In addition, the “% of Total Renin Activity” value in test [2] (0.25 nM) is listed as 94%; in test [2] (1 nM) it was 75%; in test [2] (4 nM) it was 42%; in test [2] (16 nM), 11%.
